Consider 20 molecules from patent US8580825B2, “Oxadiazole inhibitors of leukotriene production” (Boehringer Ingelheim International GmbH, priority 2010, dated 2013).

Assay [1] has as its system synthesis of LTB4 in human whole blood. Nature of the assay: human whole blood LTB4 production inhibition assay. Type of assay: cell-based. The note with it: calcimycin stimulated, read-out: hWB LTB4 IC50. The essentials:
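LTB4 levels in plasma were measured by antibody-based HTRF after heparinized human whole blood, pretreated with compound (15 min, 37° C), was challenged with 20 μM calcimycin for 30 min at 37° C.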

In assay [2] the target is T1, recombinant human FLAP protein (Homo sapiens, UniProt P20292).
T1 construct: made in house; host or cells: Sf9 insect cells (100,000xg membrane fraction used)
T1 sequence (P20292 1-161): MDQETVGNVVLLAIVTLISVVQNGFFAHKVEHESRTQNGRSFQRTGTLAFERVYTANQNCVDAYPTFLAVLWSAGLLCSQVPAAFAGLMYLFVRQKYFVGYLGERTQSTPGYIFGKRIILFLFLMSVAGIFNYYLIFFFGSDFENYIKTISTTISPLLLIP
Nature of the assay: FLAP binding assay (Scintillation Proximity Assay, displacement of [125I]L-691,831). The note with it: read-out: FLAP SPA IC50. Put shortly: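 Scintillation proximity displacement of [125I]L-691,831 (0.08 nM) from membranes of sf9 cells expressing recombinant human FLAP (5 μg/well) on WGA SPA beads, pH 7.5 Tris buffer. Plates shaken 2 h before counting. Non-specific binding defined with 10 μM unlabelled L-691,831.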
For orientation: In a scintillation proximity assay essentially only radioactivity close to the scintillant gives light.

On to `Cn1cc(-c2nc([C@](C)(c3ccc(-c4cnc(N)nc4)nc3)C3CC3)no2)cn1` [Example 58, 5-(5-{(1S)-1-cyclopropyl-1-[5-(1-methyl-1H-pyrazol-4-yl)-1,2,4-oxadiazol-3-yl]ethyl}pyridin-2-yl)pyrimidin-2-amine], for which the IC50 was 980 nM in assay [1] and 230 nM in assay [2].

In the case of `CC(C)[C@@](C)(c1ccc(-c2cnc(N)nc2)nc1)c1noc(-c2cnn(CC(=O)N(C)C)c2)n1` [Example 59, 2-[4-(3-{(2S)-2-[6-(2-aminopyrimidin-5-yl)pyridin-3-yl]-3-methylbutan-2-yl}-1,2,4-oxadiazol-5-yl)-1H-pyrazol-1-yl]-N,N-dimethylacetamide], the concentration for half-maximal inhibition (IC50) in assay [1] came to 1800 nM; in assay [2], 450 nM.

As to `CC(C)[C@](C)(c1ccc(-c2ccc(N)nc2)nc1)c1noc(-c2cnn(C)c2)n1` [Example 60, 5-{(2R)-3-methyl-2-[5-(1-methyl-1H-pyrazol-4-yl)-1,2,4-oxadiazol-3-yl]butan-2-yl}-2,3′-bipyridin-6′-amine], the 50% inhibitory concentration (IC50) is 17 nM in assay [1] and 3.4 nM in assay [2].

For `CC(C)[C@](C)(c1ccc(-c2cnc(N)nc2)nc1)c1noc(-c2cnn(CC(=O)N(C)C)c2)n1` [Example 61, 2-[4-(3-{(2R)-2-[6-(2-aminopyrimidin-5-yl)pyridin-3-yl]-3-methylbutan-2-yl}-1,2,4-oxadiazol-5-yl)-1H-pyrazol-1-yl]-N,N-dimethylacetamide], the concentration for half-maximal inhibition (IC50) in assay [1] is 48 nM; in assay [2], 3 nM.

Consider `CC(C)C(C)(c1ccc(-c2cnc(N)nc2)nc1)c1noc(-c2ccc(I)cc2)n1` (stereo not shown) [Example 62, 5-(5-{2-[5-(4-iodophenyl)-1,2,4-oxadiazol-3-yl]-3-methylbutan-2-yl}pyridin-2-yl)pyrimidin-2-amine], for which the IC50 in assay [1] stood at 420 nM; in assay [2], 19.4 nM.

As for `CC(c1ccc(-c2cnc(N)nc2)nc1)(c1noc(-c2cnn(C3COC3)c2)n1)C1CC1` (stereo not shown) [Example 63, 5-[5-(1-cyclopropyl-1-{5-[1-(oxetan-3-yl)-1H-pyrazol-4-yl]-1,2,4-oxadiazol-3-yl}-ethyl)pyridin-2-yl]pyrimidin-2-amine], the half-maximal inhibitory concentration (IC50) was 29 nM in assay [1] and 8.7 nM in assay [2].

For `CC(c1ccc(-c2cnc(N)nc2)nc1)(c1noc(-c2cn[nH]c2)n1)C1CC1` (stereo not shown) [Example 64, 5-(5-{1-cyclopropyl-1-[5-(1H-pyrazol-4-yl)-1,2,4-oxadiazol-3-yl]ethyl}pyridin-2-yl)pyrimidin-2-amine], the concentration for half-maximal inhibition (IC50) is 80 nM in assay [1] and 6.3 nM in assay [2].

`C=C(CO)n1cc(-c2nc(C(C)(c3ccc(-c4cnc(N)nc4)nc3)C3CC3)no2)cn1` (stereo not shown) [Example 65, 2-[4-(3-{1-[6-(2-aminopyrimidin-5-yl)pyridin-3-yl]-1-cyclopropylethyl}-1,2,4-oxadiazol-5-yl)-1H-pyrazol-1-yl]prop-2-en-1-ol]: the IC50 in assay [1] amounted to 28 nM; in assay [2], 1.6 nM.

Consider `CN(C)C(=O)Cn1cc(-c2nc(C(C)(c3ccc(-c4cnc(N)nc4)nc3)C3CC3)no2)cn1` (stereo not shown) [Example 67, 2-[4-(3-{1-[6-(2-aminopyrimidin-5-yl)pyridin-3-yl]-1-cyclopropylethyl}-1,2,4-oxadiazol-5-yl)-1H-pyrazol-1-yl]-N,N-dimethylacetamide], for which the values for the 50% inhibitory concentration (IC50) in assay [1] and in assay [2] were 290 nM and 110 nM, respectively.

For `COCCn1cc(-c2nc(C(C)(c3ccc(-c4cnc(N)nc4)nc3)C3CC3)no2)cn1` (stereo not shown) [Example 68, 5-[5-(1-cyclopropyl-1-{5[1-(2-methoxyethyl)-1H-pyrazol-4-yl]-1,2,4-oxadiazol-3-yl}ethyl)pyridin-2-yl]pyrimidin-2-amine], the IC50 in assay [1] worked out at 80 nM; in assay [2], 24 nM.

Turning to `CC(C)C(C)(c1ccc(-c2cnc(N)nc2)nc1)c1noc(-c2ccc(I)c(Br)c2)n1` (stereo not shown) [Example 69, 5-(5-{2-[5-(3-bromo-4-iodophenyl)-1,2,4-oxadiazol-3-yl]-3-methylbutan-2-yl}pyridin-2-yl)pyrimidin-2-amine], the half-maximal inhibitory concentration (IC50) turned out to be 840 nM in assay [1] and 64.8 nM in assay [2].

Consider `CC(C)C(C)(c1ccc(-c2cnc(N)nc2)nc1)c1noc(-c2cccnc2)n1` (stereo not shown) [Example 70, 5-(5-{3-methyl-2-[5-(pyridin-3-yl)-1,2,4-oxadiazol-3-yl]butan-2-yl}pyridin-2-yl)pyrimidin-2-amine], for which the results for the IC50 in assay [1] and in assay [2] were 240 nM and 12.4 nM, respectively.

Take `CC(C)C(C)(c1ccc(-c2cnc(N)nc2)nc1)c1noc(-c2ccccc2)n1` (stereo not shown) [Example 71, 5-{5-[3-methyl-2-(5-phenyl-1,2,4-oxadiazol-3-yl)butan-2-yl]pyridin-2-yl}pyrimidin-2-amine]: the results for the IC50 in assay [1] and in assay [2] were 840 nM and 8.1 nM, respectively.

For `Cc1ccc(-c2nc(C(C)(c3ccc(-c4cnc(N)nc4)nc3)C(C)C)no2)cn1` (stereo not shown) [Example 72, 5-(5-{3-methyl-2-[5-(6-methylpyridin-3-yl)-1,2,4-oxadiazol-3-yl]butan-2-yl}pyridin-2-yl)pyrimidin-2-amine], the IC50 in assay [1] turned out to be 440 nM; in assay [2], 26.4 nM.

`CC(C)C(C)(c1ccc(-c2cnc(N)nc2)nc1)c1noc(-c2cn[nH]c2)n1` (stereo not shown) [Example 73, 5-(5-{3-methyl-2-[5-(1H-pyrazol-4-yl)-1,2,4-oxadiazol-3-yl]butan-2-yl}pyridin-2-yl)pyrimidin-2-amine]: the IC50 in assay [1] was found to be 110 nM; in assay [2], 3.9 nM.

On to `CC(C)C(C)(c1ccc(-c2cnc(N)nc2)nc1)c1noc(-c2ccc(NCCO)nc2)n1` (stereo not shown) [Example 74, 2-{[5-(3-{2-[6-(2-aminopyrimidin-5-yl)pyridin-3-yl]-3-methylbutan-2-yl}-1,2,4-oxadiazol-5-yl)pyridin-2-yl]amino}ethanol], for which the IC50 in assay [1] is 220 nM; in assay [2], 3.1 nM.

`COCCn1cc(-c2nc([C@@](C)(c3ccc(-c4cnc(N)nc4)nc3)C3CC3)no2)cn1` [Example 75, 5-{5-[(1R)-1-cyclopropyl-1-{5-[1-(2-methoxyethyl)-1H-pyrazol-4-yl]-1,2,4-oxadiazol-3-yl}ethyl]pyridin-2-yl}pyrimidin-2-amine]: the 50% inhibitory concentration (IC50) was found to be 52 nM in assay [1] and 32 nM in assay [2].

For the molecule `COCCn1cc(-c2nc([C@](C)(c3ccc(-c4cnc(N)nc4)nc3)C3CC3)no2)cn1` [Example 76, 5-{5-[(1S)-1-cyclopropyl-1-{5-[1-(2-methoxyethyl)-1H-pyrazol-4-yl]-1,2,4-oxadiazol-3-yl}ethyl]pyridin-2-yl}pyrimidin-2-amine], the figures for the IC50 in assay [1] and in assay [2] were 2000 nM and 190 nM, respectively.

On to `CC(C)[C@](C)(c1ccc(-c2cnc(N)cn2)nc1)c1noc(-c2cnn(C)c2)n1` [Example 77, 5-(5-{(2R)-3-methyl-2-[5-(1-methyl-1H-pyrazol-4-yl)-1,2,4-oxadiazol-3-yl]butan-2-yl}pyridin-2-yl)pyrazin-2-amine], for which the IC50 in assay [1] came to 15 nM; in assay [2], 0.14 nM.

Turning to `C[C@@](c1ccc(-c2cnc(N)nc2)nc1)(c1noc(-c2cnn(C3COC3)c2)n1)C1CC1` [Example 78, 5-{5-[(1R)-1-cyclopropyl-1-{5-[1-(oxetan-3-yl)-1H-pyrazol-4-yl]-1,2,4-oxadiazol-3-yl}ethyl]pyridin-2-yl}pyrimidin-2-amine], the half-inhibitory concentration (IC50) in assay [1] stood at 29 nM; in assay [2], 8 nM.

What is called IC50 is the midpoint of a concentration-inhibition curve.
